This note sets out measurements from ChEMBL document CHEMBL5113402, “Inhibition of cytochrome P450 monooxygenase-catalyzed oxylipin formation by flavonoids: Evaluation of structure-activity relationship towards CYP4F2-selective inhibitors” (Eur J Med Chem, 2022).

The nature of data set [1]: Inhibition of CYP450 in Sprague-Dawley rat liver microsomes assessed as inhibition of 20-HETE formation in presence of arachidonic acid and NADPH by multi-enzyme assay based LC-MS/MS analysis. The class given is ADME, Microsome.
Data set [2] addresses T1, Cytochrome P450 4F2 (Homo sapiens, UniProt P78329).
T1 sequence (P78329 whole entry): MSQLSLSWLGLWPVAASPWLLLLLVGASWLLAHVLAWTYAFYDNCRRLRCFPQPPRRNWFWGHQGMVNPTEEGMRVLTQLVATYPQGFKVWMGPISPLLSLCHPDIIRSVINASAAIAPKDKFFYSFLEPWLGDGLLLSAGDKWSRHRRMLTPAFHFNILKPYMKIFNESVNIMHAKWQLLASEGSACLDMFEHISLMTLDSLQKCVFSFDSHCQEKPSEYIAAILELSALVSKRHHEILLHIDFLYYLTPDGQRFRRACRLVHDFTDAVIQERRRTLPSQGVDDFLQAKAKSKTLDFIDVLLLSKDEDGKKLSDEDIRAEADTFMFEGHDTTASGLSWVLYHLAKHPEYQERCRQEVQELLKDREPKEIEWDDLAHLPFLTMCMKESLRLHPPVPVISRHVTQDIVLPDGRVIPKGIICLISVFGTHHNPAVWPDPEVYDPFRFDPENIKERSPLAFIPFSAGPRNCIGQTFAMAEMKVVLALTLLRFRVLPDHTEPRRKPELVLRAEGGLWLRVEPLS
In words: Inhibition of recombinant human CYP4F2 expressed in baculovirus-infected insect cells in presence of arachidonic acid and NADPH incubated for 15 mins by jump-dilution assay relative to control. The class given is ADME.

The target of data set [3] is T1, Cytochrome P450 4F2. The data set can be described thus: Inhibition of recombinant human CYP4F2 expressed in baculovirus-infected insect cells in presence of arachidonic acid and NADPH incubated for 15 mins by jump-dilution assay. The format is ADME.
For data set [4], the target named is T2, CYP2J2 (Homo sapiens, UniProt P51589).
T2 sequence (P51589 whole entry): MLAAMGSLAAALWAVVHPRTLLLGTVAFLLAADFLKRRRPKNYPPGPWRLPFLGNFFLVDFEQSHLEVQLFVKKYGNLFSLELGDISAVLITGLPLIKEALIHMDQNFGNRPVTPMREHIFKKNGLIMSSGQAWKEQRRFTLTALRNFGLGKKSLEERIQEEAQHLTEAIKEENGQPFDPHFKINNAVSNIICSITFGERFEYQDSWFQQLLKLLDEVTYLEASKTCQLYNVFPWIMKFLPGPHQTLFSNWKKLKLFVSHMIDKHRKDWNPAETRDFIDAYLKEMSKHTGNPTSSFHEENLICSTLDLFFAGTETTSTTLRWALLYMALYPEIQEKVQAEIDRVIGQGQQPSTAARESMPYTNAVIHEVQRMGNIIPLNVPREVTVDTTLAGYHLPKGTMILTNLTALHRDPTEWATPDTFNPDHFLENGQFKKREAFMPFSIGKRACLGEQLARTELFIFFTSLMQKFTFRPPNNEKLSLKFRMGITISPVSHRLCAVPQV
The data set can be described thus: Inhibition of recombinant human CYP2J2 expressed in baculovirus-infected insect cells at 50 uM incubated for 15 mins in presence of arachidonic acid and NADPH by jump-dilution assay relative to control. As to conditions: probe arachidonic acid. The class given is ADME.

Data set [5] in a line: Octanol-water partition coefficient, logP of the compound incubated for 1 hr by HPLC analysis. The format is physicochemical.
Data set [6] is described as follows: Drug recovery in human liver microsomes assessed as NADPH-fortified oxidative metabolism recovery in presence of arachidonic acid incubated for 30 mins. The format is ADME, Microsome. Particulars: read-out: Drug recovery. (Liver microsomes are a subcellular fraction often used to study metabolism.)

Each structure is given as a SMILES string. A value given as a limit tells only on which side of the number the result lay.

Take `O=c1cc(-c2ccc(C(F)(F)F)cc2)oc2ccccc12`: the values for the concentration for half-maximal inhibition (IC50) in data set [1], in data set [2] and in data set [3] were 4.3 µM, 760 nM and 870 nM, respectively. For the same compound, the inhibition (usually the relative decrease from the control value, in per cent) at 0.25 h, 50 µM in data set [4] was less than 25%. The logP (commonly a log measure of how a compound divides between an organic and an aqueous phase) at 1 h in data set [5] is 4.06. The remaining at 0.5 h in data set [6] stood at 87%.
